Laboratory results taken from ChEMBL document CHEMBL1201862, “PubChem BioAssay data set” (2004).
Active and inactive are the calls of the source.

How the values were obtained:
[1] = target: T1, Alkaline phosphatase, tissue-nonspecific isozyme (Homo sapiens, UniProt P05186); assay: TNAP enzyme inhibition by screening hits, dose response, selectivity assay for mouse IAP inhibitor project, biochemical, human TNAP, uHTS hits (AID 488906); assay type: functional
T1 sequence (P05186 whole entry): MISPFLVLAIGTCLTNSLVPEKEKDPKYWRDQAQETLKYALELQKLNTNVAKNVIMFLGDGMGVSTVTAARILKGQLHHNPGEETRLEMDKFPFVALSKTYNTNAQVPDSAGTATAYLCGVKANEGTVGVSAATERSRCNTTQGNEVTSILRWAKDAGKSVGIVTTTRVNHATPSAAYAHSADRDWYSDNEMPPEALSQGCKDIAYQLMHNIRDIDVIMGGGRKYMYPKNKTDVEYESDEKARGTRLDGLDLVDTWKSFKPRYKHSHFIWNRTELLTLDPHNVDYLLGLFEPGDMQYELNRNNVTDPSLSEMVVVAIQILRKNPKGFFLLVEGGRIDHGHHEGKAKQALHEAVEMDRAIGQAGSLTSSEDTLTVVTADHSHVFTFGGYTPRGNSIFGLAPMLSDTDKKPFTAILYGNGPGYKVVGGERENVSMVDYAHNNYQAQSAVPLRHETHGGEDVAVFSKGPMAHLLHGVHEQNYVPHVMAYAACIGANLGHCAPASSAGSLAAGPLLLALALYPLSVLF

[2] = target: Glyceraldehyde-3-phosphate dehydrogenase (Homo sapiens, UniProt P04406)
[3] = target: Intestinal-type alkaline phosphatase (Mus musculus, UniProt P24822); assay: PubChem AID 488785; assay type: functional
Sequence of Intestinal-type alkaline phosphatase (Mus musculus, UniProt P24822) (P24822 whole entry): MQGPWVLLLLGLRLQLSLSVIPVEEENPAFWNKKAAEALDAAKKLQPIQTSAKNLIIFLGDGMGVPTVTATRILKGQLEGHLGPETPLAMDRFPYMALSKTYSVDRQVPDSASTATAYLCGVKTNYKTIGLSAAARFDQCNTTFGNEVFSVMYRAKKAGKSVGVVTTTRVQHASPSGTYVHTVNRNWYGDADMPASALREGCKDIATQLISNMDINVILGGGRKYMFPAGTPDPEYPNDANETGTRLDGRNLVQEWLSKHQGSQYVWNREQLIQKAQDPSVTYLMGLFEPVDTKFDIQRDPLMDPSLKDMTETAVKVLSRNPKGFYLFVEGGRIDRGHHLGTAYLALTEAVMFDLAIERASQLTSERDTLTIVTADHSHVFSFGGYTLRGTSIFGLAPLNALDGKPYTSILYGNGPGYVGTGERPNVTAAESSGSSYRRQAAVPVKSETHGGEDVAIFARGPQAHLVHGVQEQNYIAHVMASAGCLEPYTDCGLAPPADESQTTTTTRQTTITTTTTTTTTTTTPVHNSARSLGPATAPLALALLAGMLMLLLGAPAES

[4] = target: T2, Dual specificity protein phosphatase 3 (Homo sapiens, UniProt P51452); assay: MOA VHR1 Fluorescent secondary assay for identification of redox-state modulating compounds. [Related pubchem assays (depositor defined):AID1654, AID1661, AID1878, AID1957]
T2 sequence (P51452 whole entry): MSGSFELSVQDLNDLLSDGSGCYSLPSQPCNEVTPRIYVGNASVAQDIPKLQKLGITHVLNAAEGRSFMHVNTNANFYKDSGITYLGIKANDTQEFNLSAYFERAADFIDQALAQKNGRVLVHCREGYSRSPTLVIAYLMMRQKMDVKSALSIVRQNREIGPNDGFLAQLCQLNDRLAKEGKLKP

[5] = target: T3, Cytochrome P450 1A2 (Homo sapiens, UniProt P05177);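 note: PubChem cytochrome P450 panel assay, CYP1A2 panel member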
T3 sequence (P05177 whole entry): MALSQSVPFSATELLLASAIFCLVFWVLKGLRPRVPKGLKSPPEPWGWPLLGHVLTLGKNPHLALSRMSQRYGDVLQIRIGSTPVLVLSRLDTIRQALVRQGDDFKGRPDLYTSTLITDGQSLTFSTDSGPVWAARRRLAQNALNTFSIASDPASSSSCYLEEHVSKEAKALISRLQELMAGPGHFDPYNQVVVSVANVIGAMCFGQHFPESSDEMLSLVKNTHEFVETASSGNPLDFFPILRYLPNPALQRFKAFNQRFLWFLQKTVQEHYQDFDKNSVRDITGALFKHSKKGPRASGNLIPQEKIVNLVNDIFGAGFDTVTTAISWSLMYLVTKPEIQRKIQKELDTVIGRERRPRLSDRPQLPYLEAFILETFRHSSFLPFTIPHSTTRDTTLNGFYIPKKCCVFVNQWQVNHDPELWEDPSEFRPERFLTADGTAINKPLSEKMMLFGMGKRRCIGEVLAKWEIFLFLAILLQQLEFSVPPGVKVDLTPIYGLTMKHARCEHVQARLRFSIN

[6] = target: Intestinal-type alkaline phosphatase (Homo sapiens, UniProt P09923); assay: inhibition of human intestinal alkaline phosphatase – biochemical, dose response (AID 488876); assay type: functional
Sequence of Intestinal-type alkaline phosphatase (Homo sapiens, UniProt P09923) (P09923 whole entry): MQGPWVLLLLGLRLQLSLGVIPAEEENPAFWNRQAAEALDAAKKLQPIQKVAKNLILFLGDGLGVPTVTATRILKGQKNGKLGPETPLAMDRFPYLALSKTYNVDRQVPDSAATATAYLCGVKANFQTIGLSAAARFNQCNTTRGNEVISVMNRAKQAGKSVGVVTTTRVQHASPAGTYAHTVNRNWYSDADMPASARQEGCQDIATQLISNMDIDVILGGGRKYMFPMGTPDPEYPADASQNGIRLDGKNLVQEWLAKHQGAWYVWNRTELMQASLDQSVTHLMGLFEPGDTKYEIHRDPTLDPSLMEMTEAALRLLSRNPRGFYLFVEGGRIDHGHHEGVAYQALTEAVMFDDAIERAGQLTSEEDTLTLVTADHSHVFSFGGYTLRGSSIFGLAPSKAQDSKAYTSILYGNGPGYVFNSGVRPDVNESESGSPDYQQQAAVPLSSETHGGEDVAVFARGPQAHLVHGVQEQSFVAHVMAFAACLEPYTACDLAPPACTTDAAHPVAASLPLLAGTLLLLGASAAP

[7] = target: T4, Dual specificity protein phosphatase 6 (Rattus norvegicus, UniProt Q64346)
T4 sequence (Q64346 whole entry): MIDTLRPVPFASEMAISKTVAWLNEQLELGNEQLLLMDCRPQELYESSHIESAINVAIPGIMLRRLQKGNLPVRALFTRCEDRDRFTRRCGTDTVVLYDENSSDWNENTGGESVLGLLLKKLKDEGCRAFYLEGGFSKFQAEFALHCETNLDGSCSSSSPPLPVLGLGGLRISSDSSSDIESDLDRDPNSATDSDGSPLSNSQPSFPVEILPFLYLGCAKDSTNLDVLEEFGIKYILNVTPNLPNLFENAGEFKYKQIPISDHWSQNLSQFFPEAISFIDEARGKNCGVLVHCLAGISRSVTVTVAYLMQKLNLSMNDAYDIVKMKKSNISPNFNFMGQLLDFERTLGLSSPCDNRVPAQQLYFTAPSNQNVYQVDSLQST

[8] = target: Beta-adrenergic receptor kinase 1 (Homo sapiens, UniProt P25098); assay: aptamer displacement from bead-bound GRK2 – biochemical, cherry pick 1, bead flow cytometry, dose response (AID 504500)
Sequence of Beta-adrenergic receptor kinase 1 (P25098 whole entry): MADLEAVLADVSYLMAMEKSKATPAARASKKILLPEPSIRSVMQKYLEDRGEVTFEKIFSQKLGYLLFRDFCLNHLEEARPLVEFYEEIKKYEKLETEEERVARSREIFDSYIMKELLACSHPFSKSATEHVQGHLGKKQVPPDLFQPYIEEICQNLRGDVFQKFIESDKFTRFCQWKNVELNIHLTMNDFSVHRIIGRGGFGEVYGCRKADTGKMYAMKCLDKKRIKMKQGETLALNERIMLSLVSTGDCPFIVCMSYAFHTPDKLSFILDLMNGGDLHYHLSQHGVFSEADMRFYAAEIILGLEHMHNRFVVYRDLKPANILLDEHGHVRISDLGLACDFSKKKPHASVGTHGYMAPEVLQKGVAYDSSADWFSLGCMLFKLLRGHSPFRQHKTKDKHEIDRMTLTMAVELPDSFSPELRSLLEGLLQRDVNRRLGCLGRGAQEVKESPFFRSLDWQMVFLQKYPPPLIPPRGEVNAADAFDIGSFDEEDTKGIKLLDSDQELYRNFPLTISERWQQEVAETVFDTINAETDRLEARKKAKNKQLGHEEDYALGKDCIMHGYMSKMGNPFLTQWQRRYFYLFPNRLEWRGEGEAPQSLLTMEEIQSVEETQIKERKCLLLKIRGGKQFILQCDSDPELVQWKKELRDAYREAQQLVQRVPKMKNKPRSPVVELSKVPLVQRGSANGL

[9] = target: Induced myeloid leukemia cell differentiation protein Mcl-1 (Homo sapiens, UniProt Q07820); assay type: functional
Sequence of Induced myeloid leukemia cell differentiation protein Mcl-1 (Q07820 whole entry): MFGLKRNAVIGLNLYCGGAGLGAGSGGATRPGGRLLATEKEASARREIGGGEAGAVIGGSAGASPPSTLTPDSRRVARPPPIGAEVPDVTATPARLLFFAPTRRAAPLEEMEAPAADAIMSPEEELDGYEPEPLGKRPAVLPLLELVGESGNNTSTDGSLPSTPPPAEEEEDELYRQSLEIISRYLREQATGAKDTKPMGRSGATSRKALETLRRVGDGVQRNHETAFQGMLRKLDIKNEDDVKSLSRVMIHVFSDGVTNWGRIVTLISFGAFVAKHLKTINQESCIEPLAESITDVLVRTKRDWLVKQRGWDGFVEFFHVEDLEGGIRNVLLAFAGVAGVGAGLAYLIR

[10] = target: Cytochrome P450 2C9 (Homo sapiens, UniProt P11712)
[11] = target: T5, Tyrosine-protein phosphatase non-receptor type 7 (Homo sapiens, UniProt P35236); assay type: functional
T5 sequence (P35236 whole entry): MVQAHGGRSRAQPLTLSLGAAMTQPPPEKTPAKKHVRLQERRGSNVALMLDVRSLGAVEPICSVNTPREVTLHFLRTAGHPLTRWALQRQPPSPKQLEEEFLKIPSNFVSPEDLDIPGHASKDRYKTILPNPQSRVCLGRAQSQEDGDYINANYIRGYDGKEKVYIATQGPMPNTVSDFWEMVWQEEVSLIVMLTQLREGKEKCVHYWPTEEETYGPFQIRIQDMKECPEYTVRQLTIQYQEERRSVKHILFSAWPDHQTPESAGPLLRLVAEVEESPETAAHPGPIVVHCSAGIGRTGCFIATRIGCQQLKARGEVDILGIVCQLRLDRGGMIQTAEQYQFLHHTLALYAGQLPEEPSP

[12] = target: T5, Tyrosine-protein phosphatase non-receptor type 7; assay: redox-active compounds inhibiting HePTP phosphatase – biochemical, fluorescence, mechanism study (AID 2068); assay type: functional
[13] = target: T4, Dual specificity protein phosphatase 6; assay type: functional
[14] = target: T2, Dual specificity protein phosphatase 3; assay: SAR VHR1 Fluorescent Assay for In Vitro dose response studies. [Related pubchem assays (depositor defined):AID1654, AID1661, AID1878, AID1992, AID2004, AID2070, AID2085]; assay type: functional
[15] = target: Photoreceptor-specific nuclear receptor (Homo sapiens, UniProt Q9Y5X4); assay type: functional;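 note: potency for compounds that break the NR2E3 corepressor complex and count as activators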
Sequence of Photoreceptor-specific nuclear receptor (Q9Y5X4 whole entry): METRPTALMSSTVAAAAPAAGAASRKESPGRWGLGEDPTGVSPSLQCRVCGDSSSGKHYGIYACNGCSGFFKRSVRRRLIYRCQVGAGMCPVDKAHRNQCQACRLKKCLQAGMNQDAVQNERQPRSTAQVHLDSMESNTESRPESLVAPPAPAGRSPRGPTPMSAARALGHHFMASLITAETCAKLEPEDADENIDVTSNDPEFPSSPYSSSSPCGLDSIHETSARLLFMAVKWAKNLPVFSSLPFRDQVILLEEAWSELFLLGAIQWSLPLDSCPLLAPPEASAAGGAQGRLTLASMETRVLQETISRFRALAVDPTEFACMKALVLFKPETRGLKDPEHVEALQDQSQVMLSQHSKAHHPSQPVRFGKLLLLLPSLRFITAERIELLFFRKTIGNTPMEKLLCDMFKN

[16] = target: DNA topoisomerase (Yersinia pestis, UniProt A0A2S9PM60); assay: Yersinia topoisomerase I cleavage product accumulation – biochemical, cherry-pick, dose response (AID 588525)
Sequence of DNA topoisomerase (A0A2S9PM60 whole entry): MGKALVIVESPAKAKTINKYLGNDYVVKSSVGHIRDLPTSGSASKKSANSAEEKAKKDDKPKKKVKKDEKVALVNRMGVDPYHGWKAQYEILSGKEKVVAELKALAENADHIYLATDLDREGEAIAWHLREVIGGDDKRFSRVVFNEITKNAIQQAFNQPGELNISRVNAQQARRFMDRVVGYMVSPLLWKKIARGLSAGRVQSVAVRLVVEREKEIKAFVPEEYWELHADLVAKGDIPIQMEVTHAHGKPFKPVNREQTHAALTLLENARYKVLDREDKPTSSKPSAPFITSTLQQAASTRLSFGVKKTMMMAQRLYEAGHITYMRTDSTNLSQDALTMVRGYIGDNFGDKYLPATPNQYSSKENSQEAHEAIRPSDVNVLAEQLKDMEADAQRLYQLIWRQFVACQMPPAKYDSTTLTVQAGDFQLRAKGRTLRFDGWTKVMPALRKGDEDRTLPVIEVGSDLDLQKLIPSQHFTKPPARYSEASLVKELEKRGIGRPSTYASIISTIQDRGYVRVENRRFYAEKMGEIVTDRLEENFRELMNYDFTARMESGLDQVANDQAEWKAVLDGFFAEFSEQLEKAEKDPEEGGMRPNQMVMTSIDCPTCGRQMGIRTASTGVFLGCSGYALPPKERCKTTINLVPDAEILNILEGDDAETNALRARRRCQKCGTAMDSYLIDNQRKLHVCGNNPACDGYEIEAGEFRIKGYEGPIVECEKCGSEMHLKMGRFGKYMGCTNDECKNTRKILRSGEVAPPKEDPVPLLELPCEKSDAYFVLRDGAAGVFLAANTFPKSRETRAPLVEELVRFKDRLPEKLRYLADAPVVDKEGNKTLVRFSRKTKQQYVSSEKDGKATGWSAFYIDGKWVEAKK

[17] = target: Peroxisome proliferator-activated receptor gamma/Nuclear receptor corepressor 2 (Homo sapiens, UniProt P37231+Q9Y618); assay type: functional
[18] = CCR5-tropic HIV-1 fusion blockers – cell-based, CCR5-tropic Env, dose response (AID 2279); assay type: functional
[19] = target: T6, Insulin-degrading enzyme (Homo sapiens, UniProt P14735); assay: recombinant IDE activation, cell-free – biochemical, fluorescence polarization, counter-screen for IDE activator project, dose response (AID 588681)
T6 sequence (P14735 whole entry): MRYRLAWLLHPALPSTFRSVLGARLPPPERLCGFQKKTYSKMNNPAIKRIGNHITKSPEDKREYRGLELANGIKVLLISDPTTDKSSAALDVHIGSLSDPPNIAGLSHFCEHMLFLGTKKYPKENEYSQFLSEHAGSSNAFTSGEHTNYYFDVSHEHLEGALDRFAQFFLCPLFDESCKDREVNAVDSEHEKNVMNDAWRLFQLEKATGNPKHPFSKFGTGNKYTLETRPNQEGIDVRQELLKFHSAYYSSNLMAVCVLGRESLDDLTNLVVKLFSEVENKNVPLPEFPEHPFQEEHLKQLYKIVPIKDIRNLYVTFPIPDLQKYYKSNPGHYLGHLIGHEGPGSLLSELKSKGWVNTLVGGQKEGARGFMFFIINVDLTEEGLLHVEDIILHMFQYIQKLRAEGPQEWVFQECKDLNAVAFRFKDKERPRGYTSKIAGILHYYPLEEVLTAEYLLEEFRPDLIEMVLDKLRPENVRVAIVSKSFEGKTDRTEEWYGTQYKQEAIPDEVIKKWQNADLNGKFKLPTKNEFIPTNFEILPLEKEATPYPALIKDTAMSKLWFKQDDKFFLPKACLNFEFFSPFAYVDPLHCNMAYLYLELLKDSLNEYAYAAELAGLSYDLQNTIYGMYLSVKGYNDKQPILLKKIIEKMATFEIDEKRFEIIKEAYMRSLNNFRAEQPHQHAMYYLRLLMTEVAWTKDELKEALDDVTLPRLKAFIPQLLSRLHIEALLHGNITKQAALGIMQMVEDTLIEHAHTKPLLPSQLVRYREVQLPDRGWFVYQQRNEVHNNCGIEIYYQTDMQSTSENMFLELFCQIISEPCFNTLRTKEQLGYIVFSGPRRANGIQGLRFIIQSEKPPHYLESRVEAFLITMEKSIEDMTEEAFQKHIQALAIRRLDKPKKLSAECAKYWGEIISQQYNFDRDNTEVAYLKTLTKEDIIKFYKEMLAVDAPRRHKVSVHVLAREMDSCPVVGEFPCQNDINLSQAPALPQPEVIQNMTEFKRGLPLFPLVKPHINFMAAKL

[20] = system: HeLa; assay: viability loss in HeLa cells – cell-based, 24 h, cherry-picked samples, cytotoxicity control, dose response (AID 504726); assay type: functional, Homo sapiens;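 note: potency for cytotoxicity as loss of luminescence signal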
[21] = target: ORF 73 (Human herpesvirus 8, UniProt O40947); assay: KSHV LANA DNA-binding disruption – biochemical, fluorescence polarization, cherry-picked samples, dose response (AID 504725); set-up: species or system Human gammaherpesvirus 8;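 note: fluorescence polarization of a labeled DNA duplex reporting LANA DNA binding; potency is for inhibitors that block LANA binding to the DNA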
[22] = target: T7, Rac GTPase-activating protein 1 (Homo sapiens, UniProt Q9H0H5); assay: blockers of MgcRacGAP-driven Rac1 GTP hydrolysis – biochemical, ADP Hunter fluorescence, primary and confirmatory, confirmation (AID 624330); assay type: functional
T7 sequence (Q9H0H5 whole entry): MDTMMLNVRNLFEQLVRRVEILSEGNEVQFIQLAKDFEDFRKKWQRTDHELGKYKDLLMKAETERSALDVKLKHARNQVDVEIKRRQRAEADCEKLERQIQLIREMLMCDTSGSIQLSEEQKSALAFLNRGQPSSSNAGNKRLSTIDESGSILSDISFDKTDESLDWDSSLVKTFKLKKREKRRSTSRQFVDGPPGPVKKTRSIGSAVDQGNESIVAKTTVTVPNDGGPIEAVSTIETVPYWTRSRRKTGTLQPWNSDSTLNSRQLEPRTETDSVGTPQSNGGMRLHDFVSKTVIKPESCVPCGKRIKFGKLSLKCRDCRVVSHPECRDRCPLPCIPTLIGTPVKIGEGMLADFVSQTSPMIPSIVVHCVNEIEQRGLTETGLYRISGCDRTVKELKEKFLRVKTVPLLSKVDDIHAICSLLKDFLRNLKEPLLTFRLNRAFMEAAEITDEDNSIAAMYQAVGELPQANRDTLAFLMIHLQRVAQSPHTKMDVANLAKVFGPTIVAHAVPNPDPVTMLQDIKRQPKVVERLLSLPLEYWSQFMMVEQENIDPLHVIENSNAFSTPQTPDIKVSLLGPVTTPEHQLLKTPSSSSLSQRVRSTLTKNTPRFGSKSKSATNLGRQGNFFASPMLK

[23] = system: HEK293; assay: membrane integrity loss in HEK cells – cell-based, fluorescence, cytotoxicity control for IDE activator project, dose response (AID 588440); assay type: functional; details: Homo sapiens;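 note: cytotoxicity by LDH release measuring loss of membrane integrity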
[24] = target: T8, Tyrosyl-DNA phosphodiesterase 2 (Homo sapiens, UniProt O95551); assay: potency against TDP2 phosphodiesterase activity – biochemical, epi absorbance, IC50, dose response (AID 743297)
T8 sequence (O95551 whole entry): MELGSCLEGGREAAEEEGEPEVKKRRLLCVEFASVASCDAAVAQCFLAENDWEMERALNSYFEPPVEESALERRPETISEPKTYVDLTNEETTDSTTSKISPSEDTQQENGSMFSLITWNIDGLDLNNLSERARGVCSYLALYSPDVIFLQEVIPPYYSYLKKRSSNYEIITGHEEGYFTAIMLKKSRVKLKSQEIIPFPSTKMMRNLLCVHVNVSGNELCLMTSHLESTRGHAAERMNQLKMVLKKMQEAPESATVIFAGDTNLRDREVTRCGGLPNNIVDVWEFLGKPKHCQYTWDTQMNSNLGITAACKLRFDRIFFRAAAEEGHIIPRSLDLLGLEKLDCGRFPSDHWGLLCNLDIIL

[25] = target: T6, Insulin-degrading enzyme; assay: cellular IDE activation of Abeta substrate cleavage – fluorescence polarization, HEK cells, dose response (AID 588439); assay type: functional, cell-based
[26] = target: Phospholipase D2 (Homo sapiens, UniProt O14939); assay: cellular phospholipase D2 inhibition IC50 – cell-based, dose response (AID 602147); assay type: functional;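 note: cellular assay in HEK293 cells overexpressing GFP-tagged PLD2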
[27] = target: Phospholipase D1 (Homo sapiens, UniProt Q13393); assay: cellular phospholipase D1 inhibition IC50 – cell-based, dose response (AID 602151); assay type: functional;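 note: cellular PLD1 assay in Calu-1 cells stimulated with PMA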
Sequence of Phospholipase D1 (Q13393 whole entry): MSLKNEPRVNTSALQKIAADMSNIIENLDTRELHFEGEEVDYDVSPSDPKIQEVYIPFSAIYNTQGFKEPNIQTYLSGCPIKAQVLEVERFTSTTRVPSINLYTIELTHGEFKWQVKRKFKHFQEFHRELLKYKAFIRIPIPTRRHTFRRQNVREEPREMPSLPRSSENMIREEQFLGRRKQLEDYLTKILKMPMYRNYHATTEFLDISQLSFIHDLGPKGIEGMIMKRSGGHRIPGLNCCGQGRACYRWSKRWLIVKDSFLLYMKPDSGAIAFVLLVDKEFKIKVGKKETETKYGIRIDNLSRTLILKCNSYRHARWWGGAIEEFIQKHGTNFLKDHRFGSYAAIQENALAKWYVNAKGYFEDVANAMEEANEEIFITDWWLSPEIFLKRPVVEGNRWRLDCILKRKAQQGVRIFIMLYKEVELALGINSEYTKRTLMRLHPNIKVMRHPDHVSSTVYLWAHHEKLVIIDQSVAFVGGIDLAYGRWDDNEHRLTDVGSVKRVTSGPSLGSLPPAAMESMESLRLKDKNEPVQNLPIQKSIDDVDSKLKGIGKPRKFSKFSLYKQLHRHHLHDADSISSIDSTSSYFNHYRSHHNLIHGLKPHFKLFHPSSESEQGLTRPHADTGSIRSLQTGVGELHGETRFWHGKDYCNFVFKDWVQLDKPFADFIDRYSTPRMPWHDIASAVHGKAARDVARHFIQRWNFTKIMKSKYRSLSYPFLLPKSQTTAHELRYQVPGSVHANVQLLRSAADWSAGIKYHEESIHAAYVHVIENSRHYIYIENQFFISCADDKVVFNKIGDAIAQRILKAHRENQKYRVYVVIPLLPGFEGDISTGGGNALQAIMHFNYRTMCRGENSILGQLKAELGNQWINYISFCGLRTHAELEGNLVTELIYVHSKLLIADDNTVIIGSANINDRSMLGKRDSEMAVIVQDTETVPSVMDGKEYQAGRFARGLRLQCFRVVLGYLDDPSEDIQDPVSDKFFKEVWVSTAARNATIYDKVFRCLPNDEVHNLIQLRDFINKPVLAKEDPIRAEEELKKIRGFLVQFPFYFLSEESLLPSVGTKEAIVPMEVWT

[28] = cells; assay type: functional
[29] = target: Phospholipase A2 (Homo sapiens, UniProt P04054); assay type: functional;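 note: confirmatory dose-response counterscreen on phospholipase A2, testing hits that came from an ultra-high-throughput screen for ATG4B inhibitors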
Sequence of Phospholipase A2 (P04054 whole entry): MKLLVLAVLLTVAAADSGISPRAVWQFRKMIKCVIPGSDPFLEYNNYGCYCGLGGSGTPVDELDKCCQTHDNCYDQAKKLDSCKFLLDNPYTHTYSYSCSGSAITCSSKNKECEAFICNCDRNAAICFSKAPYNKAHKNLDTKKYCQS

[30] = target: Cysteine protease ATG4B (Homo sapiens, UniProt Q9Y4P1); assay type: functional;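 note: Fluorescence-based dose-response confirmation assay measuring inhibition of ATG4B activity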

Structure (SMILES): O=C(O)c1ccccc1-c1ccc(/C=c2\sc3nc4cc(Br)cnc4n3c2=O)o1
- IC50 [1]: 31.7 µM (active)
- IC50 [2]: 2.31 µM (active)
- IC50 [3]: 6.36 µM (active)
- IC50 [4]: 308 nM (active)
- AC50 [5]: 17.8 µM (inconclusive)
- IC50 [6]: > 100 µM (inactive)
- IC50 [7]: 6.8 µM (active)
- EC50 [8]: 2.39 µM (active)
- IC50 [9]: 3.32 µM (active)
- AC50 [10]: 20 µM (inconclusive)
- IC50 [11]: 1.26 µM (active)
- IC50 [12]: 159 nM (active)
- IC50 [13]: 4.92 µM (active)
- IC50 [14]: 1.25 µM (active)

Structure (SMILES): Cc1cc(N2C(=O)C(O)=C(C(=O)c3cc4ccccc4o3)C2c2cccc(Br)c2)no1 (stereo not given)
- IC50 [15]: > 39.8 µM (not active)
- AC50 [16]: 3.24 µM (active)
- IC50 [17]: 1.97 µM (active)
- IC50 [18]: > 50 µM (active)

Structure (SMILES): C[n+]1c2cc(N)ccc2cc2ccc(N)cc21
- EC50 [19]: > 54.7 µM (inactive)
- AC50 [20]: 7.94 µM (active)
- AC50 [21]: 285 nM (active)
- IC50 [22]: 97.5 µM (active)
- IC50 [23]: > 89.2 µM (inactive)
- IC50 [24]: > 128 µM (inactive)
- EC50 [25]: > 54.7 µM (inactive)

Structure (SMILES): C[C@@H](CN1CCC(n2c(=O)[nH]c3cc(I)ccc32)CC1)NC(=O)c1ccc(Cl)cc1
- IC50 [26]: 2.4 µM (active)
- IC50 [27]: 16 nM (active)

Structure (SMILES): O=[N+]([O-])c1cc2oc3c(c2c(/C=N/Cc2ccccc2)c1O)CCCC3
- IC50 [28]: 20.6 µM (active)
- IC50 [29]: 502 nM (active)
- IC50 [30]: 1.28 µM (active)
